14 molecules from PubChem BioAssay (NCI) can be followed below.

Experiment in all cases: NCI-60 cell line screen, 48 h
For assay [1], the system named is CCRF-CEM leukemia.
Assay [2] has as its system HCT-15 colon.
Assay [3] has as its system NCI-H23 lung.
Assay [4] has as its system NCI-H522 lung.
The test system of assay [5] is OVCAR-5 ovarian.
The subject of assay [6] is SF-539 CNS.
The test system of assay [7] is SNB-75 CNS.
The subject of assay [8] is U251 CNS.
For assay [9], the system named is CAKI-1 renal.
The test system of assay [10] is SK-MEL-5 melanoma.

Structures are written as SMILES.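 Five compound concentrations were applied to cells in 96-well plates for 48 hours; endpoints were derived by simple linear interpolation of the resulting dose-response curve. GI50 = concentration required for 50% inhibition of growth. TGI is the concentration that stops growth completely.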

With `C[C@@H]1OC(=O)N2CCCC(=C3SCCCS3)C12` (stereo partly specified), the TGI in assay [1], in assay [2], in assay [3], in [4], in [5] and in assay [6] was greater than 100 µM throughout. In addition, the TGI in [7] and in [8] was greater than 100 µM each time.
In the case of `CC(C)(C)c1cc(CCC(=O)Nc2ccc(Cl)cc2)nc(NC#N)n1`, the TGI in assay [9], in [1], in assay [2], in assay [3], in [5] and in assay [6] was greater than 100 µM throughout. In addition, in assay [8], the TGI was greater than 100 µM.
For the molecule `O=C(O)CCSC(=O)Nc1ccc([N+](=O)[O-])cc1`, the TGI is greater than 100 µM in assay [9]; greater than 100 µM in assay [1]; greater than 100 µM in assay [2]; greater than 100 µM in assay [3]; greater than 100 µM in assay [6]; 64.7 µM in [7]. The molecule further returned a TGI in [8] greater than 100 µM.
As for `N#CSC1CCCCNC1=O` (stereo unspecified), the TGI in assay [9] stood at 31.8 µM; in [1], 34.8 µM; in assay [2] it was 28.6 µM; in [3], 24.4 µM; in assay [4], 21.3 µM; in assay [5] it was 13.2 µM. The TGI in [6] was 26.5 µM; in assay [8], 42.6 µM.
As for `Cn1c2ccccc2c2ccc3c(c21)C(=O)c1ccccc1C3=O`, the TGI was 67 µM in [9]; 13.1 µM in assay [1]; 50.2 µM in assay [2]; 33.5 µM in [3]; 29.6 µM in assay [4]; greater than 100 µM in assay [5]. Further, the TGI in assay [6] was determined as 41.2 µM; in assay [10] it was 30.2 µM; in assay [8], 34.9 µM.
Consider `CC(SC(=S)N1CCOCC1)c1cc2oc(=O)n(C)c2cc1Cl` (stereo unspecified), for which the TGI in assay [9], in [1], in assay [2], in [3], in assay [5] and in assay [6] was greater than 100 µM in each case. Further, the TGI in assay [10], in assay [7] and in [8] was greater than 100 µM throughout.
Turning to `O=C(CCc1cc(-c2ccccc2)nc(=S)[nH]1)N(Cc1ccccc1)Cc1ccccc1`, the TGI in assay [9], in [1], in assay [2], in [3], in assay [4] and in assay [5] was greater than 100 µM each time. In addition, the TGI in assay [6] and in assay [8] was greater than 100 µM in each case.
Turning to `O=C1CCC(N2C(=O)c3ccccc3C2=O)C(=O)N1CO` (stereo unspecified), the GI50 in assay [9] was 94.7 µM; in assay [1] it was 30.5 µM; in [2], 52.2 µM; in assay [3], 39.6 µM; in [4] it was greater than 100 µM; in [5] it was greater than 100 µM. Besides, the GI50 in assay [6] is 30.8 µM; in assay [7], greater than 100 µM; in [8] it was 90.8 µM. Further, the TGI in assay [9] was greater than 100 µM; in assay [1], greater than 100 µM; in assay [2] it was greater than 100 µM; in [3], 94.6 µM; in assay [4], greater than 100 µM; in assay [5] it was greater than 100 µM. In addition, the values for the TGI in assay [6], in assay [7] and in assay [8] were 93.6 µM, greater than 100 µM and greater than 100 µM, respectively.
`COc1ccc2nc3c(C(=O)NCCN(C)C)cccc3nc2c1`: the TGI in assay [9] was greater than 100 µM; in assay [1], greater than 100 µM; in [2], 16.6 µM; in assay [3], 24.7 µM; in assay [5], 81.3 µM; in assay [6], 10.9 µM. Also, the figures for the TGI in [10], in assay [7] and in assay [8] were 15.7 µM, 25.5 µM and 29.5 µM, respectively.
On to `NC1=NC(c2ccccc2)CC(c2cc(Cl)ccc2O)=N1` (stereo unspecified), for which the TGI in assay [9] is 30.1 µM; in [1], 51.8 µM; in [3], 29.4 µM; in [4] it was 29 µM; in [5] it was 34.6 µM; in assay [6], 28.5 µM. In addition, the results for the TGI in assay [7] and in assay [8] were 31.7 µM and 29.9 µM, respectively.
Regarding `O=C(CC1(O)C(=O)Nc2c(Cl)ccc(Cl)c21)c1ccc(F)cc1` (stereo unspecified), the TGI in assay [9] was greater than 100 µM; in assay [1], greater than 100 µM; in assay [2], greater than 100 µM; in [3] it was 60.6 µM; in assay [4] it was greater than 100 µM; in assay [5], greater than 100 µM. The results for the TGI in assay [10], in [7] and in assay [8] were 38.6 µM, 74.7 µM and greater than 100 µM, respectively.
`NC(=O)NS(=O)(=O)c1ccc(N2N=C(C(F)(F)F)CC2c2cc(C(F)(F)F)cc(C(F)(F)F)c2)cc1` (stereo unspecified): the GI50 in assay [9] is 5 µM; in assay [1] it was 2.94 µM; in assay [2] it was 2.99 µM; in [3] it was 5.32 µM; in [5] it was 13.7 µM; in assay [6] it was 11.9 µM. The GI50 was 3.07 µM in [10], 2.86 µM in [7] and 3.94 µM in assay [8]. Also, the TGI in assay [9] came to 19.5 µM; in assay [1] it was 19.9 µM; in assay [2], 13.6 µM; in assay [3], 19.2 µM; in [5] it was 29.8 µM; in [6], 24.7 µM. Further, the TGI was 12 µM in [10], 15.3 µM in [7] and 15.2 µM in assay [8].
Turning to `CCOC(=O)/C(=C\c1ccccc1)C(=O)O`, the TGI in [9], in assay [1], in [2], in [3], in assay [4] and in assay [5] was greater than 100 µM in each case. Also, the TGI in [6], in [10] and in assay [8] was greater than 100 µM each time.
As for `O=[N+]([O-])c1ccc(C=NC2CCCCC2)cc1`, the TGI in assay [9], in assay [1], in assay [2], in [3], in assay [5] and in [6] was greater than 100 µM each time. The TGI in assay [10], in assay [7] and in [8] was greater than 100 µM each time.
